Test results: patent USRE37839E1, “O-benzyloxime ethers and crop protection agents containing these compounds” (BASF Aktiengesellschaft, priority 1990, dated 2002)

Assays:
Plasmopara viticola = experiment: Action on Peronospora in grapes; settings: 0.025 wt % spray liquors; leaves infected 8 days after spraying
Protocol: Leaves of potted vines of the “Müller Thurgau” variety were sprayed with aqueous liquors containing (dry basis) 80% of active ingredient and 20% of emulsifier. To assess the duration of action of the active ingredients, the plants were, after the sprayed-on layer had dried, set up in the greenhouse for 8 days. Only then were the leaves infected with a zoospore suspension of Plasmopara viticola. The vines were then placed for 48 hours in a water-vapor-saturated chamber at 24° C. and then for 5 days in a greenhouse at from 20° to 30° C. To accelerate the sporangiophore discharge, the plants were then again set up in the moist chamber for 16 hours. The extent to which the leaves had been attacked was then assessed.

[1] = system: brown rust (Puccinia recondita); experiment: Action on wheat brown rust; format: in vivo, Puccinia recondita on wheat seedlings ("Kanzler"); settings: 0.025 wt % spray liquors; sprayed 24 h after infection; assessed after 8 days
Protocol: Leaves of pot-grown wheat seedlings of the “Kanzler” variety were dusted with spores of brown rust (Puccinia recondita). The pots were then placed for 24 hours at 20° to 22° C. in a high-humidity (90-95%) chamber. During this period the spores germinated and the germ tubes penetrated the leaf tissue. […] After the sprayed-on layer had dried, the plants were set up in the greenhouse at 20° to 22° C. and a relative humidity of 65 to 70%. The extent of rust fungus spread on the leaves was assessed after 8 days.

Pyricularia oryzae = format: in vivo, Pyricularia oryzae on rice seedlings ("Bahia"); settings: 0.05 wt % spray liquors; protective, inoculated 24 hours after spraying; assessed after 6 days
[2] = system: Plutella maculipennis (diamondback moth); experiment: Plutella maculipennis (diamondback moth); ingestion-inhibiting action; format: in vivo; settings: Plutella maculipennis 4th-stage caterpillars on dipped kohlrabi leaves, after 48 hours
Protocol: Young kohlrabi leaves are dipped for 3 seconds into aqueous solutions of the candidate compounds, and then placed on a round filter paper 9 cm in diameter which has been moistened with 0.5 ml of water. The filter paper is then placed in a Petri dish 10 cm in diameter. 10 caterpillars in the 4th larval stage are then placed on each leaf and the Petri dish is closed. Ingestion inhibition is determined in % after 48 hours.

[3] = system: Musca domestica (housefly); experiment: Musca domestica (housefly); continuous contact action; format: in vivo; settings: continuous contact in Petri dish, counted after 24 hours
Protocol: Both the tops and bottoms of Petri dishes 10 cm in diameter were lined with a total of 1 ml of acetonic solutions of the active ingredients. After the solvent had evaporated (about 30 mins.), 10 files and absorbent cotton steeped in water were introduced into each dish and the dishes closed. The flies in supine position were counted after 24 hours.
If a kill rate of 80 to 100% occurs at a concentration of 0.01 mg/dish, the test is continued with falling concentrations.

| SMILES | fungicidal action (Plasmopara viticola) [%] | fungicidal action [1] [%] | fungicidal action (Pyricularia oryzae) [%] | also measured |
| --- | --- | --- | --- | --- |
| COC=C(C(=O)OC)c1ccccc1CON=C(c1ccccc1)C1CC1 [14 (Table I)] | 95 | 95 |  |  |
| COC=C(C(=O)OC)c1ccccc1CON=C(c1ccc(Cl)cc1)C1CC1 [16 (Table I)] | 95 | 95 |  |  |
| COC=C(C(=O)OC)c1ccccc1CON=C(c1ccc(OC)cc1)C1CC1 [17 (Table I)] | 95 | 95 |  |  |
| CON=C(C(=O)OC)c1ccccc1CON=C(c1ccc(OC)cc1)C1CC1 [17 (Table II)] | 95 | 95 | 100 |  |
| COC=C(C(=O)OC)c1ccccc1CON=C(C#N)C(C)C [49 (Table I)] | 95 | 95 |  |  |
| COC=C(C(=O)OC)c1ccccc1CON=C(C#N)OC1CCCCO1 (stereo not shown) [429 (Table I)] | 95 | 95 | 100 |  |
| COC=C(C(=O)OC)c1ccccc1CON=C(C)c1cccc(C)c1 [616 (Table I)] | 95 | 95 | 100 |  |
| CON=C(C(=O)OC)c1ccccc1COc1ccccc1 [A, 2-(phenoxymethyl)-phenylglyoxylic acid-methyl ester-O-methyloxime, reference compound] | 50 | 50 |  |  |
| COC=C(C(=O)OC)c1ccccc1CON=C(c1ccc(F)cc1)C1CC1 [Compound no. 15 (Table I)] | 95 | 95 |  |  |
| CON=C(C(=O)OC)c1ccccc1CON=C(c1ccc(F)cc1)C1CC1 [Compound no. 15 (Table II)] | 95 |  | 100 |  |
| CON=C(C(=O)OC)c1ccccc1CON=C(c1ccc(Cl)cc1)C1CC1 [Compound no. 16 (Table II)] | 95 |  | 100 |  |
| CON=C(C(=O)OC)c1ccccc1CON=C(C#N)C(C)(C)OC [Compound no. 36 (Table II)] | 95 |  |  |  |
| CON=C(C(=O)OC)c1ccccc1CON=C(C#N)C(C)(C)SC [Compound no. 43 (Table II)] | 95 |  |  |  |
| CON=C(C(=O)OC)c1ccccc1CON=C(C#N)C(C)C [Compound no. 49 (Table II)] | 95 |  |  |  |
| CON=C(C(=O)OC)c1ccccc1CON=C(C#N)C1CC1 [Compound no. 56 (Table II)] | 95 |  |  |  |
| CON=C(C(=O)OC)c1ccccc1CON=C(C#N)c1ccccc1 [Compound no. 117 (Table II)] | 95 |  |  |  |
| COC=C(C(=O)OC)c1ccccc1CON=C(C#N)c1ccc(F)c(Cl)c1 [Compound no. 156 (Table I)] | 95 |  |  |  |
| CON=C(C(=O)OC)c1ccccc1CON=C(C#N)OC1CCCCO1 (stereo not shown) [Compound no. 429 (Table II)] | 95 |  |  |  |
| CON=C(C(=O)OC)c1ccccc1CON=C(C)c1ccc(F)cc1 [Compound no. 571 (Table II)] |  |  | 100 |  |
| COC=C(C(=O)OC)c1ccccc1CON=C(C)c1ccccc1Cl [Compound no. 573 (Table I)] | 95 | 95 |  |  |
| COC=C(C(=O)OC)c1ccccc1CON=C(C)c1ccc(Cl)cc1Cl [Compound no. 578 (Table I)] | 95 | 95 |  |  |
| COC=C(C(=O)OC)c1ccccc1CON=C(C)c1cc(Cl)ccc1Cl [Compound no. 579 (Table I)] | 95 |  |  |  |
| COC=C(C(=O)OC)c1ccccc1CON=C(C)c1cc(Cl)cc(Cl)c1 [Compound no. 582 (Table I), Methyl 3-methoxy-2-[2′-[1″-(3′″,5′″-dichlorophenyl)-1″-methyl]-iminooxymethyl]-phenylacrylate] | 95 | 95 |  |  |

| SMILES | fungicidal action (Plasmopara viticola) [%] | fungicidal action [1] [%] | fungicidal action (Pyricularia oryzae) [%] | also measured |
| --- | --- | --- | --- | --- |
| CON=C(C(=O)OC)c1ccccc1CON=C(C)c1cc(Cl)cc(Cl)c1 [Compound no. 582 (Table II), Methyl 2-methoximino-2-[2′-(1″-(3′″,5′″-dichlorophenyl)-1″-methyl)-iminooxymethyl]-phenylacetate] | 95 |  | 100 |  |
| COC=C(C(=O)OC)c1ccccc1CON=C(C)c1ccc(Cl)c(Cl)c1Cl [Compound no. 583 (Table I)] | 95 |  | 100 |  |
| CON=C(C(=O)OC)c1ccccc1CON=C(C)c1ccc(Cl)c(Cl)c1Cl [Compound no. 583 (Table II)] |  |  | 100 |  |
| COC=C(C(=O)OC)c1ccccc1CON=C(C)c1cccc(Br)c1 [Compound no. 592 (Table I)] | 95 | 95 | 100 |  |
| CON=C(C(=O)OC)c1ccccc1CON=C(C)c1cccc(Br)c1 [Compound no. 592 (Table II)] |  |  | 100 |  |
| COC=C(C(=O)OC)c1ccccc1CON=C(C)c1ccc(Br)cc1 [Compound no. 593 (Table I), Methyl 3-methoxy-2-[2′-(1″-(4′″-bromophenyl)-1″-methyl)-iminooxymethyl]-phenylacrylate] | 95 |  | 100 |  |
| CON=C(C(=O)OC)c1ccccc1CON=C(C)c1ccc([N+](=O)[O-])cc1 [Compound no. 614 (Table II), Methyl 2-methoximino-2-[2′-(1″-(4′″-nitrophenyl)-1″-methyl)-iminooxymethyl]-phenylacetate] | 95 |  |  |  |
| CON=C(C(=O)OC)c1ccccc1CON=C(C)c1ccc(C(C)(C)C)cc1 [Compound no. 644 (Table II)] | 95 | 95 | 100 |  |
| COC=C(C(=O)OC)c1ccccc1CON=C(C)c1ccccc1C(F)(F)F [Compound no. 704 (Table I)] | 95 | 95 |  |  |
| COC=C(C(=O)OC)c1ccccc1CON=C(C)c1cccc(C(F)(F)F)c1 [Compound no. 705 (Table I)] | 95 | 95 |  |  |
| COC=C(C(=O)OC)c1ccccc1CON=C(C)c1ccc(C(F)(F)F)cc1 [Compound no. 706 (Table I)] | 95 |  | 100 |  |
| CON=C(C(=O)OC)c1ccccc1CON=C(C)c1ccc(Oc2ccccc2)cc1 [Compound no. 769 (Table II)] |  |  | 100 |  |
| CON=C(C(=O)OC)c1ccccc1CON=C(C)c1ccc(C2CCCCC2)cc1 [Compound no. 782 (Table II)] |  |  | 100 |  |
| COC=C(C(=O)OC)c1ccccc1CON=C(c1ccc(Cl)cc1)C1CC1 [compound 16] |  |  |  | Mortality in % ([2]; application rate 400 ppm): 80% |
| COC=C(C(=O)OC)c1ccccc1CON=C(C#N)C(C)(C)OC [compound 36] |  |  |  | Mortality in % ([3]; application rate 1.0 ppm): 80%; Mortality in % ([2]; application rate 200 ppm): 80% |
| CCOC(C)(C)C(C#N)=NOCc1ccccc1C(=COC)C(=O)OC [compound 37] |  |  |  | Mortality in % ([3]; application rate 0.1 ppm): 100% |
| COC=C(C(=O)OC)c1ccccc1CON=C(C#N)C(C)C [compound 49] |  |  |  | Mortality in % ([3]; application rate 0.1 ppm): 80%; Mortality in % ([2]; application rate 200 ppm): 80% |
| COC=C(C(=O)OC)c1ccccc1CON=C(C#N)OC1CCCCO1 (stereo not shown) [compound 429] |  |  |  | Mortality in % ([2]; application rate 1000 ppm): 80% |
| COC=C(C(=O)OC)c1ccccc1CON=C(C)c1cc(Cl)cc(Cl)c1 [compound 582] |  |  |  | Mortality in % ([3]; application rate 0.1 ppm): 80%; Mortality in % ([2]; application rate 400 ppm): 100% |
| COC=C(C(=O)OC)c1ccccc1CON=C(C)c1cccc(Br)c1 [compound 592] |  |  |  | Mortality in % ([2]; application rate 400 ppm): 80% |
| COC=C(C(=O)OC)c1ccccc1CON=C(C)c1ccc(Br)cc1 [compound 593] |  |  |  | Mortality in % ([3]; application rate 0.1 ppm): 60%; Mortality in % ([2]; application rate 1000 ppm): 80% |
| COC=C(C(=O)OC)c1ccccc1CON=C(C)c1cccc(C(F)(F)F)c1 [compound 705] |  |  |  | Mortality in % ([3]; application rate 0.1 ppm): 100%; Mortality in % ([2]; application rate 400 ppm): 80% |
| COC=C(C(=O)OC)c1ccccc1CON=C(C)c1ccc(C(F)(F)F)cc1 [compound 706] |  |  |  | Mortality in % ([3]; application rate 0.1 ppm): 100%; Mortality in % ([2]; application rate 400 ppm): 80% |
